Columns and labels:
[1] = molecular target: T1, recombinant human glucokinase (beta cell isoform, His-tagged) (Homo sapiens, UniProt P35557); assay: Assay 1: activator potency and maximum activation at 5 mM glucose (coupled PK/LDH, NADH depletion, A340); assay type: biochemical; settings: for Emax: % Maximum Activation=(Va/Vo−1)×100; for EC50: glucokinase activation, pH 7.1, room temperature
T1 construct: Full-length glucokinase (beta cell isoform) was His-tagged at the N-terminus; His tag (N); made in house; host or cells: E. coli BL21(DE3), pBCGK vector
T1 sequence (P35557 1-465): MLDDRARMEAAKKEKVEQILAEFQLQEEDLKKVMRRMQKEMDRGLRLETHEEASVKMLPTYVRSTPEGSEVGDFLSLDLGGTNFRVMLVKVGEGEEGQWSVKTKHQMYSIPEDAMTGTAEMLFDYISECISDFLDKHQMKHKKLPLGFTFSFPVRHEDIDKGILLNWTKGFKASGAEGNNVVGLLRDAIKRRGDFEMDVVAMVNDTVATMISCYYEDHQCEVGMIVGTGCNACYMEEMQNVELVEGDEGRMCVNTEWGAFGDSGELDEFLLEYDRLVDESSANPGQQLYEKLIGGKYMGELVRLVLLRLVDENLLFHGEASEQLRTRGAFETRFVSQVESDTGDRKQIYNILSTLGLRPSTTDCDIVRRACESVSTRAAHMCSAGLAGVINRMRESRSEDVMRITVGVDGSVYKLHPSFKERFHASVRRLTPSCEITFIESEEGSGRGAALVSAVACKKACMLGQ
Experimental: (§1) Representative compounds of this invention were evaluated in biochemical assays (Assay 1 or Assay 2) to characterize their glucokinase activation properties. The recombinant human glucokinase protein utilized in both assays was prepared and purified as described below. • Beta Cell Glucokinase His-Tag Growth and Induction Conditions: BL21(DE3) cells (Invitrogen Corporation, Carlsbad, Calif.) containing pBCGK (C or N His) vector were grown at 37° C. (in 2XYT) until the OD600 was between 0.6-1.0. Expression was induced by addition of isopropylthiogalactoside to a final concentration of 0.1-0.2 mM to the cells which were then incubated overnight at 23° C. The next day, cells were harvested via centrifugation at 5000 rpm for 15 minutes at 4° C. The cell pellet was stored at −80° C. for future purification. • Beta Cell Glucokinase His-Tag Purification Conditions: A Ni-NTA (Quigan, Germantown, Md.) column (15-50 mL) was used for separation. Two buffers were prepared, 1) a lysis/nickel equilibration and wash buffer and 2) a nickel elution buffer. The lysis/equilibration/wash buffer was prepared as such: 25 mM HEPES buffer at pH 7.5, 250 mM NaCl, 20 mM imidazole, and 14 mM […] as final concentrations. The elution buffer was prepared as such: 25 mM HEPES at pH 7.5, 250 mM NaCl, 400 mM imidazole, and 14 mM β-mercaptoethanol as final concentrations. The buffers were each filtered with a 0.22 μm filter prior to use. The cell pellet (1 L culture) was resuspended in 300 mL of the lysis/equilibration buffer. The cells were then lysed (3 times) with a Microfluidics Model 110Y microfluidizer (Microfluidics Corporation, Newton, Mass.). The slurry was centrifuged with a Beckman Coulter Model LE-80K ultracentrifuge (Beckman Coulter, Fullerton, Calif.) at 40,000 rpm for 45 minutes at 4° C. The supernatant was transferred to a chilled flask. A volume of 20 μl was saved for gel analysis. A Pharmacia AKTA (GMI, Inc., Ramsey, Minn.) purification system was used for separation. The prime lines were purged with lysis/equilibration buffer. The Ni-NTA column was equilibrated with 200 mL of the lysis/equilibration buffer at a flow rate of 5 mL/minute. The supernantant was loaded over the column at 4 mL/minute and the flow-through was collected in a flask. The unbound proteins were washed with lysis/equilibration buffer at a flow rate of 5 mL/minute until the ultraviolet reaches baseline. The protein was then eluted from the column with the imidazole elution buffer via imidazole gradient 20 mM to 400 mM over 320 mL. The column was then stripped of any additional protein with 80 mL of the elution buffer. The elution fractions were each 8 mL, for a total yield of 50 samples. Fractions were analyzed by sodium dodecyl sulfate polyacrylamide (SDS-PAGE) and the fractions containing protein of interest were pooled and concentrated to 10 mL using ultrafiltration cell with a 10,000 molecular weight cut-off (MWCO) Millipore membrane (Sigma-Aldrich, St. Louis, Mo.) under nitrogen gas (60 psi). Protein was further purified by size exclusion chromatography (SEC) using a […] (320 mL) (Amersham Pharmacia, Uppsala, Sweden). SEC was equilibrated with 450 mL sizing buffer containing 25 mM HEPES pH 7.0, 50 mM NaCl, and 5 mM dithiothreitol. Concentrated protein was then loaded over SEC and elution with 400 mL sizing buffer was performed overnight at 0.5 mL/minute. The elution fractions were 5 mL each. The fractions were analyzed by SDS-PAGE and protein containing fractions were pooled. Concentration was measured using Bradford Assay/BSA Standard. Purified protein was stored in small aliquots at −80° C. Assay 1: Evaluating Activator Potency and Maximum Activation at 5 mM Glucose
Full-length glucokinase (beta cell isoform) was His-tagged at the N-terminus and purified by a Ni column followed by size exclusion chromatography as described above. […]

[2] = molecular target: T2, recombinant human glucokinase (Homo sapiens, UniProt P35557); assay: Assay 2: activator potency in a matrix assay at multiple glucose concentrations (22 compound x 16 glucose concentrations); assay type: biochemical; settings: concentration of compound affording a 50% reduction in the enzyme's Km for glucose, read-out: Intrinsic EC50
T2 construct: His tag; made in house; host or cells: E. coli BL21(DE3), pBCGK vector
T2 sequence (P35557 1-465): T1 sequence (P35557 1-465)
Experimental: as §1, with “Concentrated protein was then loaded over SEC and elution with 400 mL sizing buffer was performed overnight at 0.5 mL/minute. The elution fractions were 5 mL each.” left out, “Purified protein was stored in small aliquots at −80° C. Assay 1: Evaluating Activator Potency and Maximum Activation at 5 mM Glucose” left out

Row | Emax [1] [%] | EC50 [1] [µM] | EC50 [2] [µM] | SMILES
1 | 100 | 64 | – | Cc1ccc(NC(=O)[C@H](CC2CCOCC2)n2cc(C(F)(F)F)ncc2=O)nc1 [Example 1, (S)-N-(5-methylpyridin-2-yl)-2-(2-oxo-5-(trifluoromethyl)pyrazin-1(2H)-yl)-3-(tetrahydro-2H-pyran-4-yl)propanamide]
2 | 117 | 0.453 | – | O=C(O)c1ccc(NC(=O)[C@H](CC2CCCC2)n2cc(C(F)(F)F)ncc2=O)nc1 [Example 2, (S)-6-(3-cyclopentyl-2-(2-oxo-5-(trifluoromethyl)pyrazin-1(2H)-yl)propanamido)nicotinic acid]
3 | 139 to 143 | 5.6 to 7.1 | – | O=C(Nc1cnccn1)[C@H](CC1CCCC1)n1cc(C(F)(F)F)ncc1=O [Example 3, (S)-3-cyclopentyl-2-(2-oxo-5-(trifluoromethyl)pyrazin-1(2H)-yl)-N-(pyrazin-2-yl)propanamide]
4 | 99 to 100 | 0.27 to 0.37 | – | Cc1ccc(NC(=O)[C@H](CC2CCCC2)n2cc(C(F)(F)F)ncc2=O)nc1 [Example 4, (S)-3-cyclopentyl-N-(5-methylpyridin-2-yl)-2-(2-oxo-5-(trifluoromethyl)pyrazin-1(2H)-yl)propanamide]
5 | – | – | 0.22 to 0.31 | O=C(O)c1ccc(NC(=O)[C@H](CC2CCCCC2)n2cc(C(F)(F)F)ncc2=O)nc1 [Example 5, (S)-6-(3-cyclohexyl-2-(2-oxo-5-(trifluoromethyl)pyrazin-1(2H)-yl)propanamido)nicotinic acid]
6 | – | – | 8.9 | O=C(O)c1ccc(NC(=O)[C@H](CC2CCOCC2)n2cc(C(F)(F)F)ncc2=O)nc1 [Example 6, (S)-6-(2-(2-oxo-5-(trifluoromethyl)pyrazin-1(2H)-yl)-3-(tetrahydro-2H-pyran-4-yl)propanamido)nicotinic acid]
7 | – | – | 3.3 | CC(C)C[C@@H](C(=O)Nc1ccc(C(=O)O)cn1)n1cc(C(F)(F)F)ncc1=O [Example 7, (S)-6-(4-methyl-2-(2-oxo-5-(trifluoromethyl)pyrazin-1(2H)-yl)pentanamido)nicotinic acid]
8 | – | – | 2.3 | O=C(O)Cc1ccc(NC(=O)[C@H](CC2CCCC2)n2cc(C(F)(F)F)ncc2=O)nc1 [Example 8, (S)-2-(6-(3-cyclopentyl-2-(2-oxo-5-(trifluoromethyl)pyrazin-1(2H)-yl)propanamido)pyridin-3-yl)acetic acid]
9 | – | – | 1.25 | O=C(O)c1ccc(NC(=O)[C@H](CC2CCC2)n2cc(C(F)(F)F)ncc2=O)nc1 [Example 9, (S)-6-(3-cyclobutyl-2-(2-oxo-5-(trifluoromethyl)pyrazin-1(2H)-yl)propanamido)nicotinic acid]

Source: patent publication US8071606B2, “Substituted pyrazinone amides useful for activation of glucokinase” (Pfizer Inc., priority 2009, dated 2011)
